The values that follow come from US20230015532A1, “PHARMACEUTICAL COMPOSITION, FOR PREVENTING OR TREATING FIBROSIS, COMPRISING PHEOPHORBIDE COMPOUND AS ACTIVE INGREDIENT” (PAEAN BIOTECHNOLOGY INC., priority 2019, published 2023).

Series [1] relates to collagen 1A, fibronectin and alpha-smooth muscle actin proteins in CCD8-Lu cells. The series is described as follows: Anti-fibrotic activity by Western blotting (Experimental Example 3.1). The class given is cell-based, human. The note with it: 0.06-5 μM, 6 hours after TGF-β, 18 hours. The protocol:
A cell-based assay experiment was performed using Western blotting assay to analyze the anti-fibrotic activity of pheophorbide a.
CCD8-Lu cells, which are human lung-derived fibroblasts, were cultured in the DMEM medium containing 10% FBS. Then, about 2×10^5 cells were inoculated into a 6 well plate and cultured for 24 hours, and subjected to the deficient condition in the DMEM medium from which FBS was removed for about 24 hours.
24 hours later, following the treatment with TGF-β at a concentration of 5 ng/ml, fibrosis of cells was induced for 6 hours. After 6 hours, the cells were treated with pheophorbide a obtained in Preparation Example 2 and further cultured for 18 hours (FIG. 2). Then, the negative control group was treated with nothing, the positive control group was treated with TGF-β alone at a concentration of 5 ng/ml, and the experimental groups were treated with TGF-β at a concentration of […] and 6 hours later, with pheophorbide a at each concentration of 0.06 μM, 0.12 μM, 0.25 μM, 0.5 μM, 2.5 μM and 5 μM. […]
The separated supernatant was obtained and transferred to a new microtube and then the protein was quantified using a bicinchoninic acid assay (BCA assay) protein quantitative kit. […]

The test system of series [2] is α-SMA, CTGF and NOX4 genes in CCD8-Lu cells. The series can be described thus: Comparison of anti-fibrotic activity by quantitative real-time PCR (Experimental Example 4.1). It is filed as cell-based, human. The settings on record: 2.5 μM and 5 μM; 6 hours after 5 ng/ml TGF-β, 18 hours; qRT-PCR. The protocol:
A cell-based analysis experiment was performed to analyze the anti-fibrotic activity of pheophorbide a obtained in Preparation Example 2 in comparison with nintedanib and pirfenidone, which were previously approved as a therapeutic agent for pulmonary fibrosis, using quantitative real-time polymerase chain reaction.
CCD8-Lu cells, which are human lung-derived fibroblasts, were cultured in the DMEM medium containing 10% FBS. About 2×10^5 cells were then inoculated into a 6 well plate, cultured for 24 hours, and subjected to the deficient condition in the DMEM medium from which FBS was removed for about 24 hours.
24 hours later, following the treatment with TGF-β at a concentration of 5 ng/ml, fibrosis of cells was induced for 6 hours. After 6 hours, the cells were treated with pheophorbide a obtained in Preparation Example 2 or the therapeutic agent for pulmonary fibrosis and further cultured for 18 hours. […]
The supernatant was separated, added with the same volume of isopropyl alcohol and centrifuged at 12,000×g for 10 minutes. […] After drying, about 50 μl of RNAase-free purified distilled water was added thereto, and the quantity and purity of the obtained RNA was measured using a spectrophotometer. […]
After the cDNA synthesis reaction was completed, the reverse transcriptase was inactivated by heating at 72° C. for 5 minutes, and then RNase H was added to remove the […] RNA and obtain the final cDNA. Whether the expression of the alpha-smooth muscle actin gene, which is a characteristic gene of myofibroblasts, the CCN2 (or CTGF) gene, which is a characteristic gene for fibrosis, fibronectin, which is a characteristics gene for fibrosis, and the NOX4 (NADPH oxidase 4) gene known as a major regulator of the amount of reactive oxygen species was changed was observed through quantitative real-time polymerase chain reaction. The GAPDH gene was quantified together to correct differences in expression.
On the technique in general: Quantitative PCR measures a nucleic acid by following its amplification.

For series [3], the system named is Smad protein activity in Balb/c3T3 cells. The series can be described thus: Smad-binding luciferase reporter assay of TGF-β signaling. The class given is cell-based. The settings on record: 0.06-5 μM together with 5 ng/ml TGF-β, 20 hours. The protocol:
A vector was prepared in which a gene obtained by repeating eight times the nucleotide sequence (5′-[…]-3′ SEQ ID NO: 1) to which the Smad gene can bind was linked to a gene encoding luciferase as a reporter gene. The above vector was transfected into Balb/c3T3 cells together with a vector in which the RSV promoter gene was linked to a gene encoding beta-galactosidase. After 6 hours, the negative control group was treated with nothing, the positive control group was treated with TGF-β at a concentration of 5 ng/ml, and the experimental groups were treated with pheophorbide a obtained in Preparation Example 2 at each concentration of 0.06 μM, 0.12 μM, 0.25 μM, 0.5 μM, 1 μM, and 5 μM, together with 5 ng/ml of TGF-β.
The cells were then cultured in 5% CO2 incubator at 37° C. for 20 hours, and then luciferase analysis was performed.

Series [4] deals with CCD8-Lu cells and LL-29 cells. The series can be described thus: Cytotoxicity of pheophorbide a (WST-1 cell survival). It is filed as cell-based, human. The note with it: 72 hours, CCD8-Lu and LL-29. Here is the method:
In order to confirm the cytotoxicity of pheophorbide a obtained in Preparation Example 2, CCD8-Lu cells and LL-29 cells which are human lung-derived fibroblasts, were used. CCD8-Lu cells and LL-29 cells were inoculated into 96 well plates with […] cells/well and stabilized while culturing for 24 hours in a wet CO2 incubator at 37° C. The cultured cells were treated with different concentrations of pheophorbide a obtained in Preparation Example 2 and, 72 hours later, treated with the WST-1 reagent. After 1 hour, the survival rate of the cells was measured using a microplate reader (EZ Read 400, biochrom, UK) to determine the absorbance at 450 nm, and the toxicity was evaluated.
The cell survival rate as a result of the experiment is shown in FIG. 3 by expressing the percentage of the absorbance of the sample-treated group relative to the control group.
On the technique in general: Tetrazolium assays rely on reduction of a dye to a coloured formazan, in cell work by metabolically active cells.

Consider pheophorbide a, for which, in series [1], the “expression of collagen 1A, fibronectin, and smooth muscle actin proteins induced by TGF-β” value is reported as “inhibited”. The “expression of the α-SMA, CTGF and NOX4 genes induced by TGF-β” value in series [2] is “remarkably inhibited”. The “activity of Smad protein increased by TGF-β (luciferase)” value in series [3] is on record as “decreased by pheophorbide a in a concentration-dependent manner”. The cytotoxicity entry was “about 25%” in series [4] (concentration of 5 μM), “about 75%” in series [4] (concentration of 10 μM) and “little cytotoxicity” in series [4] (up to a concentration of 2.5 μM).
